The test system of assay [1] is cultured human mast cells (CHMC). Kind of assay: CHMC low cell density IgE activation: tryptase assay. Type of assay: cell-based. Particulars: low cell density CHMC, IgE activation. The procedure, abridged:
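Tryptase release was read from supernatant with a fluorogenic substrate (30 min, room temperature) after anti-IgE challenge of cultured human mast cells (1000–1500 cells/well, low density) for 30 minutes at 37° C.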

Assay [2] has the same test system. Nature of the assay: CHMC low cell density ionomycin activation: tryptase assay. Type of assay: cell-based. Particulars: low cell density CHMC, 3 pt, read-out: LD Tryptase, CHMC, Iono, 3 pt.
Where [3] appears, read: Homo sapiens, Mast cell, tryptase release, 3 pt, read-out: LD Tryptase, CHMC, IgE, 3 pt.
Where [4] appears, read: Homo sapiens, Mast cell, tryptase release.
Setting [5] is: tryptase release, 3 pt, read-out: LD Tryptase, CHMC, IgE, 3 pt.
[6] abbreviates: tryptase release, 8 pt, read-out: LD Tryptase, CHMC, IgE, 8 pt.
The mark [7] stands for this setting: Homo sapiens, Mast cell, tryptase release, 8 pt, read-out: LD Tryptase, CHMC, IgE, 8 pt.
[8] abbreviates: Homo sapiens, Mast cell, tryptase, 3 pt, read-out: LD Tryptase, CHMC, IgE, 3 pt.
The mark [9] stands for this setting: Homo sapiens, Mast cell, tryptase.
The mark [10] stands for this setting: tryptase, 3 pt, read-out: LD Tryptase, CHMC, IgE, 3 pt.

Consider `CN1CCOc2ccc(Nc3nc(Nc4cccc(-c5cnco5)c4)ncc3F)cc21` [Compound 236], for which the figures for the IC50 in assay [1] (setting [3]) and in assay [2] (setting [4]) were below 10 µM and above 10 µM, respectively.
`CN1CCOc2cc(Nc3nc(Nc4cccc(-c5cnco5)c4)ncc3F)ccc21` [Compound 237]: the IC50 in assay [1] (setting [3]) is below 10 µM; in assay [2] (setting [4]) it was above 10 µM.
Turning to `CC1(C)COc2ccc(Nc3nc(Nc4ccc(-c5ncco5)cc4)ncc3F)cc2N1` [Compound 238, N4-(3,4-Dihydro-3,3-dimethyl-2H,4H-benz[1,4]oxazin-6-yl)-5-fluoro-N2-[4-(oxazol-2-yl)phenyl]-2,4-pyrimidinediamine], the IC50 in assay [1] (setting [5]) is below 10 µM; in assay [1] (setting [6]), below 10 µM; in assay [2] (tryptase release), above 10 µM.
With `O=C1COc2ccc(Nc3nc(Nc4ccc(-c5ncco5)cc4)ncc3F)cc2N1` [Compound 239], the IC50 in assay [1] (setting [3]) is below 10 µM; in assay [1] (setting [7]), below 10 µM; in assay [2] (setting [4]), above 10 µM.
Regarding `C[C@@H]1Oc2ccc(Nc3nc(Nc4ccc(-c5ncco5)cc4)ncc3F)cc2NC1=O` [Compound 240], the IC50 in assay [1] (setting [3]) was below 10 µM; in assay [1] (setting [7]), below 10 µM; in assay [2] (setting [4]), above 10 µM.
As to `O=C1COc2cc(Nc3nc(Nc4ccc(-c5ncco5)cc4)ncc3F)ccc2N1` [Compound 241], the IC50 in assay [1] (setting [3]) and in assay [2] (setting [4]) was above 10 µM in each case.
For the compound `O=C1Nc2cc(Nc3nc(Nc4ccc(-c5ncco5)cc4)ncc3F)ccc2OC1CCO` (stereo not shown) [Compound 242], the IC50 in assay [1] (setting [3]) was below 10 µM; in assay [1] (setting [7]), below 10 µM; in assay [2] (setting [4]) it was above 10 µM.
On to `CN1CCOc2ccc(Nc3nc(Nc4ccc(-c5ncco5)cc4)ncc3F)cc21` [Compound 243, N4-(2,3-Dihydro-4-methyl-2H-benz[1,4]oxazin-6-yl)-5-fluoro-N2-[4-(oxazol-2-yl)phenyl]-2,4-pyrimidinediamine], for which the IC50 is below 10 µM in assay [1] (setting [5]), below 10 µM in assay [1] (setting [6]) and above 10 µM in assay [2] (tryptase release).
For the compound `CN1C(=O)COc2cc(Nc3nc(Nc4ccc(-c5ncco5)cc4)ncc3F)ccc21` [Compound 244], the IC50 in assay [1] (setting [3]) and in assay [2] (setting [4]) was above 10 µM each time.
As for `CN1C(=O)COc2ccc(Nc3nc(Nc4ccc(-c5ncco5)cc4)ncc3F)cc21` [Compound 245], the IC50 in assay [1] (setting [3]) and in assay [2] (setting [4]) was above 10 µM each time.
As for `O=C1COc2ccc(Nc3nc(Nc4cccc(-c5cnco5)c4)ncc3F)cc2N1` [Compound 246], the results for the IC50 in assay [1] (setting [3]), in assay [1] (setting [7]) and in assay [2] (setting [4]) were below 10 µM, below 10 µM and above 10 µM, respectively.
On to `C[C@@H]1Oc2ccc(Nc3nc(Nc4cccc(-c5cnco5)c4)ncc3F)cc2NC1=O` [Compound 247], for which the IC50 in assay [1] (setting [3]) is below 10 µM; in assay [1] (setting [7]), below 10 µM; in assay [2] (setting [4]), above 10 µM.
With `O=C1Nc2ccc(Nc3nc(Nc4cccc(-c5ncco5)c4)ncc3F)cc2OC1CCO` (stereo not shown) [Compound 248], the IC50 in assay [1] (setting [3]) is below 10 µM; in assay [1] (setting [7]), below 10 µM; in assay [2] (setting [4]), above 10 µM.
`O=C1Nc2ccc(Nc3nc(Nc4ccc(-c5cnco5)cc4)ncc3F)cc2OC1CCO` (stereo not shown) [Compound 249]: the IC50 was below 10 µM in assay [1] (setting [3]), above 10 µM in assay [1] (setting [7]) and above 10 µM in assay [2] (setting [4]).
`C[C@H]1Oc2ccc(Nc3nc(Nc4cccc(-c5cocn5)c4)ncc3F)cc2NC1=O` [Compound 250]: the IC50 in assay [1] (setting [3]), in assay [1] (setting [7]) and in assay [2] (setting [4]) was below 10 µM each time.
`C[C@@H]1Oc2ccc(Nc3nc(Nc4cccc(-c5cocn5)c4)ncc3F)cc2NC1=O` [Compound 251]: the IC50 in assay [1] (setting [3]) is below 10 µM; in assay [1] (setting [7]), below 10 µM; in assay [2] (setting [4]) it was above 10 µM.
On to `COc1cc(Nc2ncc(F)c(Nc3ccc4c(c3)NCC(CCO)O4)n2)cc(OC)c1` (stereo not shown) [Compound 253, N4-[3,4-Dihydro-2-(2-hydroxyethyl)-2H,4H-benz[1,4]oxazin-6-yl]-N2-(3,5-dimethoxyphenyl)-5-fluoro-2,4-pyrimidinediamine], for which the IC50 in assay [1] (setting [5]) was below 10 µM; in assay [1] (setting [6]), below 10 µM; in assay [2] (tryptase release), above 10 µM.
For the compound `CNC(=O)COc1cccc(Nc2ncc(F)c(Nc3ccc4c(c3)NC(=O)CS4)n2)c1` [Compound 254, 5-Fluoro-N2-[3-(N-methylamino)carbonylmethyleneoxyphenyl]-N4-(3-oxo-2H,4H-benzo[1,4]thiazin-6-yl)-2,4-pyrimidinediamine], the figures for the IC50 in assay [1] (setting [5]), in assay [1] (setting [6]) and in assay [2] (tryptase release) were below 10 µM, below 10 µM and above 10 µM, respectively.
As for `Cc1cc(C)cc(Nc2ncc(F)c(Nc3ccc4c(c3)NCC(CCO)O4)n2)c1` (stereo not shown) [Compound 255, N4-[2,3-Dihydro-2-(2-hydroxyethyl)-2H,4H-benz[1,4]oxazin-6-yl]-N2-(3,5-dimethylphenyl)-5-fluoro-2,4-pyrimidinediamine], the IC50 in assay [1] (setting [5]) is below 10 µM; in assay [1] (setting [6]), below 10 µM; in assay [2] (tryptase release), above 10 µM.
Consider `COc1cc(Nc2ncc(F)c(Nc3ccc4c(c3)NC(=O)CS4)n2)cc(OC)c1` [Compound 256], for which the IC50 in assay [1] (setting [3]) was below 10 µM; in assay [1] (setting [7]) it was below 10 µM; in assay [2] (setting [4]), above 10 µM.
In the case of `COc1ccc(Nc2ncc(F)c(Nc3ccc4c(c3)NC(=O)CS4)n2)cc1Cl` [Compound 257], the IC50 in assay [1] (setting [3]) is below 10 µM; in assay [1] (setting [7]), below 10 µM; in assay [2] (setting [4]) it was above 10 µM.
As for `CNC(=O)COc1cccc(Nc2ncc(F)c(Nc3ccc4c(c3)NCCS4)n2)c1` [Compound 258, N4-(3,4-Dihydro-2H,4H-benzo[1,4]thiazin-6-yl)-5-fluoro-N2-[3-(N-methylamino)carbonylmethyleneoxyphenyl]-2,4-pyrimidinediamine], the IC50 in assay [1] (setting [5]) was below 10 µM; in assay [1] (setting [6]) it was below 10 µM; in assay [2] (tryptase release), above 10 µM.
Turning to `CNC(=O)COc1cccc(Nc2ncc(F)c(Nc3ccc4c(c3)N(C)C(=O)CS4)n2)c1` [Compound 259, 5-Fluoro-N2-[3-(N-methylamino)carbonylmethyleneoxyphenyl]-N4-(4-methyl-3-oxo-2H-benzo[1,4]thiazin-6-yl)-2,4-pyrimidinediamine], the values for the IC50 in assay [1] (setting [5]), in assay [1] (setting [6]) and in assay [2] (tryptase release) were below 10 µM, below 10 µM and above 10 µM, respectively.
In the case of `COc1cc(Nc2ncc(F)c(Nc3ccc4c(c3)N(C)C(=O)CS4)n2)cc(OC)c1` [Compound 260], the IC50 was below 10 µM in assay [1] (setting [3]), below 10 µM in assay [1] (setting [7]) and above 10 µM in assay [2] (setting [4]).
`NC(=S)c1cccc(Nc2ncc(F)c(Nc3ccc4c(c3)NC(=O)CO4)n2)c1` [Compound 261, N2-(3-Benzothioamide)-5-fluoro-N4-(3-oxo-2H,4H-benz[1,4]oxazin-6-yl)-2,4-pyrimidinediamine]: the results for the IC50 in assay [1] (setting [5]) and in assay [2] (tryptase release) were below 10 µM and above 10 µM, respectively.
`NC(=S)c1cccc(Nc2ncc(F)c(Nc3ccc4c(c3)NC(=O)C(CCO)O4)n2)c1` (stereo not shown) [Compound 262, N2-(3-Benzothioamide)-5-fluoro-N4-[2-(2-hydroxyethyl)-3-oxo-2H,4H-benz[1,4]oxazin-6-yl]-2,4-pyrimidinediamine]: the IC50 in assay [1] (setting [5]) is below 10 µM; in assay [2] (tryptase release), above 10 µM.
Turning to `COc1cc(Nc2nc(Nc3ccc4oc(C(=O)O)cc4c3)ncc2F)cc(OC)c1` [Compound 382], the IC50 in assay [1] (setting [8]) and in assay [2] (setting [9]) was above 10 µM in each case.
Regarding `CNC(=O)COc1cccc(Nc2ncc(F)c(N(C)c3ccc4c(c3)OCCO4)n2)c1` [Compound 385, N4-(3,4-Ethylenedioxyphenyl)-5-fluoro-N4-methyl-N2-[3-(N-methylamino)carbonylmethyleneoxyphenyl]-2,4-pyrimidinediamine], the IC50 in assay [1] (setting [10]) was below 10 µM; in assay [1] (tryptase, 8 pt, read-out: LD Tryptase, CHMC, IgE, 8 pt), below 10 µM; in assay [2] (tryptase), above 10 µM.
As for `COc1cc(Nc2ncc(F)c(N(C)c3ccc4c(c3)OCCO4)n2)cc(OC)c1` [Compound 386], the IC50 is below 10 µM in assay [1] (setting [8]); below 10 µM in assay [1] (Homo sapiens, Mast cell, tryptase, 8 pt, read-out: LD Tryptase, CHMC, IgE, 8 pt); above 10 µM in assay [2] (setting [9]).
Turning to `Cc1cc(C)cc(Nc2ncc(F)c(N(C)c3ccc4c(c3)OCCO4)n2)c1` [Compound 387], the results for the IC50 in assay [1] (setting [8]) and in assay [2] (setting [9]) were below 10 µM and above 10 µM, respectively.
As for `COc1cc(Nc2ncc(F)c(N(C)c3ccc4c(c3)NC(=O)C(C)(C)O4)n2)cc(OC)c1` [Compound 388], the IC50 in assay [1] (setting [8]) and in assay [2] (setting [9]) was above 10 µM in each case.
On to `COc1cc(Nc2nc(Nc3cccc4cc(C(=O)NC(C)(C)CO)[nH]c34)ncc2F)cc(OC)c1` [Compound 389, N4-(3,5-Dimethoxyphenyl)-N2-[2-(N-1,1-dimethyl-2-hydroxyethylamino)carbonylindol-7-yl]-5-fluoro-2,4-pyrimidinediamine], for which the IC50 in assay [1] (setting [10]) was below 10 µM; in assay [2] (tryptase) it was above 10 µM.
With `CN(c1ccc2c(c1)OCCO2)c1nc(Cl)ncc1F` [Compound 390], the IC50 in assay [1] (setting [8]) and in assay [2] (setting [9]) was above 10 µM each time.
As to `Cc1cc(C)cc(Nc2ncc(F)c(N(C)c3ccc4c(c3)N(C)C(=O)C(C)(C)O4)n2)c1` [Compound 391], the IC50 in assay [1] (setting [8]) and in assay [2] (setting [9]) was below 10 µM throughout.
Regarding `COc1ccc(Nc2ncc(F)c(N(C)c3ccc4c(c3)N(C)C(=O)C(C)(C)O4)n2)cc1Cl` [Compound 392], the IC50 in assay [1] (setting [8]) and in assay [2] (setting [9]) was below 10 µM in each case.
